Data on one compound can be found in US20040077601A1, “Methods and compositions relating to isoleucine boroproline compounds” (Point Therapeutics, Inc., priority 2002, published 2004).

Data set [1] relates to WEHI 164 tumor cells. The experiment in a line: WEHI 164 mouse tumor model (subcutaneous inoculation of 4×10^6 tumor cells). It counts as in vivo, mice. The conditions noted are these: for Tumor sizes, subcutaneous compared to oral: day 20; for Tumor sizes (mean tumor volumes) on day 20 versus saline control: all 3 doses, twice daily day 2 to day 19, n=10; for Incidence of tumor rejection (%): recorded on day 20. The method, then:
FIG. 2. Comparison of the anti-tumor activity of Ile-boroPro administered orally or by subcutaneous injection in the WEHI 164 mouse tumor model. Mice were inoculated subcutaneously with 4×10^6 tumor cells and administered Ile-boroPro twice daily from day 2 to day 19 after tumor inoculation, either by oral gavage (open bars) or subcutaneous injection (solid bars). Control mice received saline (hatched bar). The data represent mean tumor volumes±SEM (n=10) were recorded on day 20.
Mice were inoculated subcutaneously with 4×10^6 WEHI 164 tumor cells and administered 2-, 5- or 10-μg doses of Ile-boroPro twice daily from day 2 to […] after tumor inoculation, either by oral gavage or subcutaneous injection. Control mice received saline. […] The greater efficacy of subcutaneous administration was also reflected in the incidence of tumor rejection in mice receiving treatment with the various doses of Ile-boroPro (Table 2). […] It should be noted that tumor rejection was never observed in mice inoculated with WEHI 164 and treated with saline.

For data set [2], the system named is chemokine KC. The experiment in a line: Serum levels of the chemokine KC by ELISA in mice after administration.
The target in data set [3] is serum DPP-IV (Mus musculus, UniProt P28843). The experiment in a line: Serum DPP-IV activity in mice two hours after administration (indicator of bioavailability). In kind it is in vivo. Conditions: 0.2-, 2.0-, 20-, 200-μg doses, subcutaneous injection vs oral gavage, serum two hours later.
Sequence of serum DPP-IV (P28843 37-760 limits assumed): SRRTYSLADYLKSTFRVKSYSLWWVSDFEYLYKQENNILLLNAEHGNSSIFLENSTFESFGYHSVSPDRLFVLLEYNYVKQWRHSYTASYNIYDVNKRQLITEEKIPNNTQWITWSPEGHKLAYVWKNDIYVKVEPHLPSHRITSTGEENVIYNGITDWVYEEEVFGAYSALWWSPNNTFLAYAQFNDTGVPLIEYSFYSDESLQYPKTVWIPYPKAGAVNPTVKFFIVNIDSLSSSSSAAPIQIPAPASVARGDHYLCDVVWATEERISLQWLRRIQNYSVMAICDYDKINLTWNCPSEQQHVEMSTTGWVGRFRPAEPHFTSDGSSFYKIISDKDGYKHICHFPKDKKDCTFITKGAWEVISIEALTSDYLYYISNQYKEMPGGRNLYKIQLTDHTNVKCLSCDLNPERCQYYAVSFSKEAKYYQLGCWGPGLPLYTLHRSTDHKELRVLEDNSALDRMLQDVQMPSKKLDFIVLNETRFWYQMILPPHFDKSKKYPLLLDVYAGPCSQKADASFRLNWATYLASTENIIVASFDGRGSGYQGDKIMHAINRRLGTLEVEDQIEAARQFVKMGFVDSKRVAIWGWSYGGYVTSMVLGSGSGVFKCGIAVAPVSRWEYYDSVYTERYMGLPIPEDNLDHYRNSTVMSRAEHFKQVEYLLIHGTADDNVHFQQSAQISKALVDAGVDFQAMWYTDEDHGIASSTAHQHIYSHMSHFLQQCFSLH

Turning to `CCC(C)C(N)C(=O)N1CCCC1B(O)O` (stereo not shown) [Ile-boroPro], the “Suppression of tumor growth, subcutaneous versus oral administration (tumor volumes on day 20)” value in data set [1] (2-, 5- or 10-μg doses twice daily) is on record as “more effective than oral administration in suppressing tumor growth”. Besides, the “Tumor sizes, subcutaneous compared to oral” value is “significantly smaller” in data set [1] (2-μg dose twice daily, P<0.0005) and “significantly smaller” in data set [1] (5-μg dose twice daily, P<0.005). The “Tumor sizes (mean tumor volumes) on day 20 versus saline control” value in data set [1] (oral gavage, P<0.05) is listed as “significant reduction in tumor sizes”; in data set [1] (subcutaneous injection, P<0.00005), “significant reduction in tumor sizes”. The “Incidence of tumor rejection (%)” value in data set [1] (oral, 10 μg twice daily day 2 to day 19, 2 separate experiments) is “caused tumor rejection”; in data set [1] (subcutaneous, 2 μg twice daily day 2 to day 19, one experiment), 60%; in data set [1] (subcutaneous, 5 μg twice daily day 2 to day 19, one experiment), 70%. The “Time of maximal increases in serum KC levels after administration” value in data set [2] was 2 h. In addition, in data set [3], the “Bioavailability judged from dose response of inhibition of serum DPP-IV, subcutaneous versus oral” value was “more bioavailable”.
